Results published in patent publication US20100311726A1, “REDUCTION OF BETA-AMYLOID LEVELS BY TREATMENT WITH THE SMALL MOLECULE DIFFERENTIATION-INDUCING FACTOR” (priority 2007, published 2010).
Non-standard residues stand in square brackets, D forms with d. Residues, ends and D or L forms follow the SMILES beside them. Nle = CCCC[C@H](N)C(=O)O

Assays:
APP [1] = test: APP processing (mature APP, αCTF, βCTF) by western blot; assay type: cell-based, human; conditions: for effect of proteasome inhibitor alone on APP CTF levels: CHO-CAB, 10 μM; for effect of kinase inhibitor alone on APP processing / CTF levels: CHO-7W or CHO-CAB, LiCl 1-10 mM; for effect of kinase inhibitor pretreatment on the effect of DIF-1 on APP processing: with 30 μM DIF-1
cyclin D1 = test: Cyclin D1 level by western blot; conditions: for effect on cyclin D1 level (proteasome inhibitor alone): CHO-CAB, 10 μM
Method: Following treatment of each cell line with or without DIF-1 (1-30 μM) and/or other inhibitors, cells were lysed in cold RIPA buffer (20 mM Tris-HCl (pH 7.4) buffer containing 150 mM NaCl, 2 mM EDTA, 1% Nonidet® P-40 (NP-40), 50 mM NaF, 1 mM Na3VO4, 1 mM Na2MoO4, 10 mg/ml aprotinin, and 10 mg/ml leupeptin), supplemented with protease inhibitor tablets from Roche (Switzerland). Protein amounts were quantified in triplicate using the BCA assay from Pierce. Equal amounts of protein extracts were fractionated by sodium dodecyl sulfate polyacrylamide gel electrophoresis (SDS-PAGE) and transferred to polyvinylidene difluoride membranes. The membranes were blocked for 1 hour with 5% fat-free powdered milk or 5% BSA, incubated overnight at 4° C. with primary antibodies (1:1000 or 1:5000), washed with TTBS and then incubated at room temperature with appropriate peroxidase-conjugated secondary antibodies (1:5000). Blots were repeatedly washed with TTBS and target proteins were detected using an enhanced chemiluminescence (ECL) system (Amersham Pharmacia Biotech, New Jersey, USA) and XOMAT™ Kodak® film.
Densitometry analysis of western blot data was performed on a PC computer using QuantityOne® software obtained from Bio-Rad® Laboratories, Inc. (California, USA). Loading variations between western blot lanes were normalized according to the GAPDH signal prior to any experimental quantification. Each western blot presented in the figures is representative of at least five independent experiments to ensure reproducibility of the results unless noted otherwise.
CHO-CAB cells were treated with lithium chloride (10mM). […] To ensure that the results observed were due to proteasome inhibition, we assessed the effects of lactacystin and ALLN on cyclin D1 levels. […] The data represents that of three separate experiments.

APP ubiquitin-conjugates = APP ubiquitin-conjugates by immunoprecipitation and western blot; conditions: CHO-CAB; DIF-1 30 μM, lactacystin 10 μM, ALLN 10 μM
Method: For immunoprecipitations, 1 mg of total protein was diluted with extraction buffer and precleared with protein G-conjugated agarose beads (Pierce). The precleared samples were incubated overnight with anti-APP antibodies or nonimmune IgG (Jackson Laboratories). Immunocomplexes were captured with Protein G agarose beads, washed five times with extraction buffer and heated for 5 min at 95° C. in SDS gel-loading buffer.
CHO-CAB cell protein extracts (1 mg) were immunoprecipitated using APP antibodies. The immunoprecipitated complexes were analyzed by western blotting using anti-ubiquitin antibodies. […] Molecular Weight markers (kDa) are shown on the left. GAPDH levels are shown below each blot. The data represents that of three separate experiments.
To determine whether the proteasome-mediated degradation of APP is accompanied by increased levels of poly-ubiquitinated APP, we investigated the ubiquitination status of APP in extracts of CHO-CAB cells treated in the absence or presence of DIF-1 (30 μM), lactacystin (10 μM), ALLN (10 μM), DIF-1+lactacystin and DIF-1+ALLN.

[2] = tested on: APP phosphorylation on residue T668; test: APP T668 phosphorylation by western blot; assay type: cell-based, human; conditions: CHO-7W and CHO-CAB; DAPT alone, or DAPT with DIF-1 (30 μM)
Method: Next, whether or not DIF-1 treatment affected the degree of T668 phosphorylation was examined by western blot (FIG. 11). Briefly, effects of DIF-1 on APP T668 phosphorylation were compared between vehicle-treated control and 250 nM of DAPT identically in each cell line. Western analysis of 15 μg of total protein was probed overnight at 4° C. with anti-APP Cterminal antibody (C66-676-695) (1:5000) and then detected on film using ECL and HRP-conjugated secondary antibodies (1:5000). […] This band has also been detected in other CHO lines where APP expression is high (˜3 fold) and by different C-terminal APP antibodies (Ab8717-676-695; except 6E10 which recognizes the N-terminal residues 1-17 of the Aβ sequence. For FIG. 11A, cells were treated with DAPT, and DAPT+DIF then were probed with anti-APP antibody (C66). For FIG. 11B, CHO-7W cells were treated with DAPT, and DAPT+DIF, and then probed with polyclonal anti-P668 APP antibody (1:1000) overnight at 4° C. in 5% BSA. After washing, cells were probed with a rabbit HRP-conjugated secondary antibody (1:5000) in BSA for 1 hour at room temperature and signals were detected on film using ECL. FIG. 11C represents CHO-CAB cells and FIG. 11D represents H4 cells expressing APP^SW.

APP [3] = test: APP processing (mature APP, αCTF, βCTF) by western blot; assay type: cell-based, human; conditions: CHO-7W, 250 nM
Method: Total protein was collected in RIPA buffer plus protease inhibitors on ice and briefly sonicated. They lysate was centrifuged at 14,000 rpm for 15 minutes. […] After washing, the blots were probed with a polyclonal HRP-tagged secondary Ab (1:5000) for 1 hour at room temperature then visualized.
A second possibility is that DIF-1 potentiates the activity of y-secretase and processing of αCTFs and βCTFs. To assess this latter possibility, we examined the effect of DIF-1 in the presence of DAPT, a potent γ-secretase inhibitor. Even numbers of CHO-7W cells were plated in 6-well dishes and allowed to grow overnight. The next day, the media was removed and replaced with control media (2 ml) or media containing DAPT, DIF-1 or DAPT and DIF-1. […] After washing, blots were probed with HRP-conjugated secondary antibodies (1:5000) for 1 hour at room temperature. […] It would appear that the mechanism of DIF-1 on APP metabolism is not likely to involve γ-secretase activity, but might impact on either BACE1 levels or activity.
To evaluate this probability, we treated CHO-CAB cells that overexpress human APP^751 and human BACE1 with 30 μM of DIF-1. More specifically, even numbers of CHO-CAB cells were plated in 6-well dishes and allowed to grow overnight. The next day, the media was removed and replaced with control media (2 ml) or media containing DAPT, DIF-1 or DAPT and DIF-1. […] After washing, blots were probed with HRP-conjugated secondary antibodies (1:5000) for 1 hour at room temperature. Each treatment is shown above the blot. […] It would appear that DIF-1 has a greater effect on APP maturation in CHO-CAB cells. Longer exposures reveal the presence of mature APP bands in DIF-1 treated cells.
Next dose-dependent effects of DIF-1 on APP processing were examined. Even numbers of CHO-CAB cells were plated in 6-well dishes and allowed to grow overnight. The next day, cells were treated overnight with either vehicle or increasing concentrations of DIF-1 (5-30 μM).

human APLP1 = test: APLP1 metabolism by western blot in CHO-A1 cells; assay type: cell-based; conditions: 30 μM DIF-1 or 250 nM DAPT, ~20 hours
Method: CHO cells that stably express human APLP1, which is a closely related family member of the APPs and known γ-secretase substrate (Eggert et al., 2004), were treated with 30 μM DIF-1, DAPT or DIF-1 plus DAPT (FIG. 7). Equal numbers of CHO-A1 cells stably expressing human APLP1 cells were plated in 6-well dishes and allowed to grow overnight. The next day, the media was removed and replaced with control media (2 ml) or media containing DAPT, DIF-1 or DAPT and DIF-1. […] After washing, blots were probed with HRP-conjugated secondary antibodies (1:5000) for 1 hour at room temperature.

Dictyostelium discoideum = conditions: cited from earlier work
[4] = tested on: human leukemia K562 cells; conditions: Kubohara 1999; cited from earlier work
GSK = conditions: cited from earlier work

CCCC[C@@H](C=O)NC(=O)[C@H](CC(C)C)NC(=O)[C@H](CC(C)C)NC(C)=O [ALLN, Acetyl-L-Leucyl-L-Leucyl-L-Norleucinal, reference compound] (Ac-Leu-Leu-[Nle]-aldehyde)
effect of proteasome inhibitor alone on APP CTF levels (APP [1]): induced an increase in CTF levels
effect on cyclin D1 level (proteasome inhibitor alone) (cyclin D1): increased the levels of cyclin D1
level of APP ubiquitin-conjugates (single agent) (APP ubiquitin-conjugates): increased the level of APP ubiquitin conjugates

C[C@H](NC(=O)Cc1cc(F)cc(F)c1)C(=O)N[C@H](C(=O)OC(C)(C)C)c1ccccc1 [DAPT, N4-[N-(3,5-difluorophenacetyl-1-alanyl)]-S-phenylglycine tert-butyl ester, reference compound]
amount of T668 phosphorylated APP CTFs [2]: greatly increased the amount of detectable phosphorylated APP at residue T668
α- and βCTF levels with γ-secretase inhibitor alone (APP [3]): increase in the levels of both α- and βCTFs
APLP1 maturation, protein levels, CTF levels (human APLP1): significant increase in the levels of APLP1 CTF
effect on cyclin D1 level (cyclin D1; CHO-7W, 30 μM DIF-1 or 250 nM DAPT): no effect

CCCCC(=O)c1c(O)c(Cl)c(OC)c(Cl)c1O [DIF-2, 1-(3,5-dichloro-2,6-dihydroxy-4-methoxyphenyl)pentan-1-one]
specific activity relative to DIF-1 (stalk-cell differentiation) (Dictyostelium discoideum; percent of the activity of DIF-1): ~40%

CCCCCC(=O)c1c(O)cc(OC)c(Cl)c1O [DIF-3, 1-(3-chloro-2,6-dihydroxy-4-methoxyphenyl)hexan-1-one]
activity in inducing stalk-cell differentiation (Dictyostelium discoideum; in words): much less active
anti-leukemic potency among DIF analogs [4]: most potent anti-leukemic agent

O=C1Cc2c([nH]c3ccc(Br)cc23)-c2ccccc2N1 [kenpaullone, 9-bromo-7,12-dihydro-indolo[3,2d][1]benzazepin-6(5H)-one]
effect of kinase inhibitor alone on APP processing / CTF levels (APP [1]): no effect on the level of APP CTFs
effect of kinase inhibitor pretreatment on the effect of DIF-1 on APP processing (APP [1]): neither attenuated nor potentiated the effect of DIF-1 on APP processing
IC50 (GSK): 23 nM

CC(=O)N[C@@H](CSC(=O)[C@]1([C@@H](O)C(C)C)NC(=O)[C@H](C)[C@@H]1O)C(=O)O [lactacystin, 3S-hydroxy-2R-(1-hydroxy-2-methylpropyl)-4R-methyl-5-oxo-2 pyrrolidine-carboxylate-N-acetyl-L-cysteine, reference compound]
effect of proteasome inhibitor alone on APP CTF levels (APP [1]): induced an increase in the level of αCTF and βCTF
effect on cyclin D1 level (proteasome inhibitor alone) (cyclin D1): increased the levels of cyclin D1
level of APP ubiquitin-conjugates (single agent) (APP ubiquitin-conjugates): increased the level of APP ubiquitin conjugates

CC[C@H](CO)Nc1nc(NCc2ccccc2)c2ncn(C(C)C)c2n1 [roscovitine, 2-(R)-[[9-(1-Methylethyl)-6-[(phenylmethyl)amino]-9H-purin-2-yl]amino]-1 butanol]
effect of kinase inhibitor alone on APP processing / CTF levels (APP [1]): no effect on APP metabolism
effect of kinase inhibitor pretreatment on the effect of DIF-1 on APP processing (APP [1]): neither blocked nor potentiated the effect of DIF-1 on APP CTF production
